Data as given in ChEMBL document CHEMBL5465560, “Selectivity Literature for EUbOPEN Chemogenomic Library” (2024).
Blank lines part the entries; values can stand above or below the compound they belong to.

How the values were obtained:
[1] = molecular target: T1, cAMP-dependent protein kinase catalytic subunit PRKX (Homo sapiens) (UniProt P51817); test: Selectivity interaction (KinomeScan (DiscoverX)) EUB0001079a PRKX; conditions: at 1 µM
T1 sequence (whole entry): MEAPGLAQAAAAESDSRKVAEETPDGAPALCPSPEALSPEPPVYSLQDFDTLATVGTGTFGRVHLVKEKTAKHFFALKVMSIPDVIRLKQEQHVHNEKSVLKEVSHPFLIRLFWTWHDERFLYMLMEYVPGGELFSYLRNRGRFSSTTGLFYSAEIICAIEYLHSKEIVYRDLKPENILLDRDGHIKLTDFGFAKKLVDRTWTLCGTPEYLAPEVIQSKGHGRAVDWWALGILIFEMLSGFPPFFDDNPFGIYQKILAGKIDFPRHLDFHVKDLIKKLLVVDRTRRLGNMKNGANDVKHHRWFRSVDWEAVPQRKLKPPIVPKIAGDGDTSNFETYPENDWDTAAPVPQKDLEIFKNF

[2] = molecular target: Mitogen-activated protein kinase kinase kinase 11 (Homo sapiens) (UniProt Q16584); test: Selectivity interaction (KinomeScan (DiscoverX)) EUB0000607a MAP3K11; conditions: at 10 µM
[3] = molecular target: Ribosomal protein S6 kinase alpha-6 (Homo sapiens, UniProt Q9UK32); test: Selectivity interaction (KinomeScan (DiscoverX)) EUB0001619a RPS6KA6; conditions: at 1 µM
[4] = molecular target: Tyrosine-protein kinase Fyn (Homo sapiens) (UniProt P06241); test: Selectivity interaction (Kinase panel (KiNativ target engagement assay in Jurkat cells)) EUB0001635a FYN; assay type: cell-based; conditions: Selectivity number of off-targets 0.0, Selectivity number of targets 233.0, Source Knowledge https://www.sciencedirect.com/science/article/pii/S2451945619300674?via%3Dihub, at 1 µM
[5] = molecular target: T2, Interleukin-1 receptor-associated kinase 3 (Homo sapiens) (UniProt Q9Y616); conditions: at 10 µM
T2 sequence (whole entry): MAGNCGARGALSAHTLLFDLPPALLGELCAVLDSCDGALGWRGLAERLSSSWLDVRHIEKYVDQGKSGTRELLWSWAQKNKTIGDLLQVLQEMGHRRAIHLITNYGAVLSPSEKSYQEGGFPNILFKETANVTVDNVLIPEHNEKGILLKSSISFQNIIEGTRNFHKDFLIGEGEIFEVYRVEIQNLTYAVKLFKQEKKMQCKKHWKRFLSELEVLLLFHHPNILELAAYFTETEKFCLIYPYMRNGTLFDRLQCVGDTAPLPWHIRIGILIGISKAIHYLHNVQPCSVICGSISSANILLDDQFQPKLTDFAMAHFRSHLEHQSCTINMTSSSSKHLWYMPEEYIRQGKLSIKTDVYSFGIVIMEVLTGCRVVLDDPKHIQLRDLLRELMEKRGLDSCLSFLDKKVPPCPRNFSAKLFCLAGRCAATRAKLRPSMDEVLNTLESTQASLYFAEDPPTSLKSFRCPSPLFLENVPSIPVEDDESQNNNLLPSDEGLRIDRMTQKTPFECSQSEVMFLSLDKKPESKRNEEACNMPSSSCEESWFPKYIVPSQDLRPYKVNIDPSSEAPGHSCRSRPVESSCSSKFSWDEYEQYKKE

[6] = molecular target: Serine/threonine-protein kinase B-raf (Homo sapiens) (UniProt P15056); test: Selectivity interaction (Kinase panel (Invitrogen)) EUB0000639a BRAF; conditions: at 200 nM
[7] = molecular target: T3, Serine/threonine-protein kinase LATS2 (Homo sapiens) (UniProt Q9NRM7); test: Selectivity interaction (ActivX KiNativ screen (kinase selectivity in THP-1 cell lysates)) EUB0000639a LATS2; assay type: subcellular; conditions: lysate
T3 sequence (whole entry): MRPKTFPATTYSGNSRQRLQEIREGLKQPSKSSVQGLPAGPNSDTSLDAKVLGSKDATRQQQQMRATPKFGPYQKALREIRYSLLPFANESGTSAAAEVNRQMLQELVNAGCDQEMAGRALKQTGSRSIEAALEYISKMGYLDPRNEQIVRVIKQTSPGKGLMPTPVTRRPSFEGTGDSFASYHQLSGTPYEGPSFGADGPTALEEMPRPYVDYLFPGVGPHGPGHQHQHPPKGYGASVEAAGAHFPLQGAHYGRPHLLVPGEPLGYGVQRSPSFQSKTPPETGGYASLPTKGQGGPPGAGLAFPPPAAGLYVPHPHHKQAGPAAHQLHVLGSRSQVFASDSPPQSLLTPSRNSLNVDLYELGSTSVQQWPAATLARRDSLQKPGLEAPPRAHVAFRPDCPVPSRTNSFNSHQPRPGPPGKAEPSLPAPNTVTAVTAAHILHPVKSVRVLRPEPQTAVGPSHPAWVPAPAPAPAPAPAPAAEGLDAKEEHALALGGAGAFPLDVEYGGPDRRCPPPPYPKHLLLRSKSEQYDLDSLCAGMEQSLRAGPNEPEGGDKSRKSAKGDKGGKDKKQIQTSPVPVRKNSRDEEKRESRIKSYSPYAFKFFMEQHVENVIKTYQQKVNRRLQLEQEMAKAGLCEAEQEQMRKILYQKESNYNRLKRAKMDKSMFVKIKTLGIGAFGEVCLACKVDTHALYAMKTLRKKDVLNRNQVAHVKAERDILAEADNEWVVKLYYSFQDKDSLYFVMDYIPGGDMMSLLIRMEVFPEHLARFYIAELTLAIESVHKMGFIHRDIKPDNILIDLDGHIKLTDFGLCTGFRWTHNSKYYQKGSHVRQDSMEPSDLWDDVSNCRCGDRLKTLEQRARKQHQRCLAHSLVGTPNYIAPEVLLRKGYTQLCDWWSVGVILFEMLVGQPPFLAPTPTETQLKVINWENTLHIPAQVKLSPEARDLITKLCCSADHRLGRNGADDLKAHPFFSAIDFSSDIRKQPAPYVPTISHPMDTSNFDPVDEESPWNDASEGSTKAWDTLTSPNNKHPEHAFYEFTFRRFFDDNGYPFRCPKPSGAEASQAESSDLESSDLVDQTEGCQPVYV

Tyrosine-protein kinase Fyn (Homo sapiens), sequence (P06241 2-537 limits assumed): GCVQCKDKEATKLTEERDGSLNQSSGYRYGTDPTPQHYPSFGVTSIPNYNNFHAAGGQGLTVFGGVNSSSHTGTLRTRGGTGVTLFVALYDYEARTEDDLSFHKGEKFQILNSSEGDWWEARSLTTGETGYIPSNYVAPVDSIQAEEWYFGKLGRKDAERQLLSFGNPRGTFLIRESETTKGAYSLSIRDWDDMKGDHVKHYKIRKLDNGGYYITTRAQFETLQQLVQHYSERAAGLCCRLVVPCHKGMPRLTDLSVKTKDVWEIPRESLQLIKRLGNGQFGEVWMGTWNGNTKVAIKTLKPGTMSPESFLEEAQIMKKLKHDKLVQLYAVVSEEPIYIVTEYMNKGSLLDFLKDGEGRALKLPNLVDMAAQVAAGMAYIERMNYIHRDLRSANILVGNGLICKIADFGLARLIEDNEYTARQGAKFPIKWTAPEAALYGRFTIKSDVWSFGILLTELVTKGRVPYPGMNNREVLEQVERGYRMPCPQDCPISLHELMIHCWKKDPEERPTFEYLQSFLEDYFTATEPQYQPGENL
Ribosomal protein S6 kinase alpha-6, sequence (Q9UK32 whole entry): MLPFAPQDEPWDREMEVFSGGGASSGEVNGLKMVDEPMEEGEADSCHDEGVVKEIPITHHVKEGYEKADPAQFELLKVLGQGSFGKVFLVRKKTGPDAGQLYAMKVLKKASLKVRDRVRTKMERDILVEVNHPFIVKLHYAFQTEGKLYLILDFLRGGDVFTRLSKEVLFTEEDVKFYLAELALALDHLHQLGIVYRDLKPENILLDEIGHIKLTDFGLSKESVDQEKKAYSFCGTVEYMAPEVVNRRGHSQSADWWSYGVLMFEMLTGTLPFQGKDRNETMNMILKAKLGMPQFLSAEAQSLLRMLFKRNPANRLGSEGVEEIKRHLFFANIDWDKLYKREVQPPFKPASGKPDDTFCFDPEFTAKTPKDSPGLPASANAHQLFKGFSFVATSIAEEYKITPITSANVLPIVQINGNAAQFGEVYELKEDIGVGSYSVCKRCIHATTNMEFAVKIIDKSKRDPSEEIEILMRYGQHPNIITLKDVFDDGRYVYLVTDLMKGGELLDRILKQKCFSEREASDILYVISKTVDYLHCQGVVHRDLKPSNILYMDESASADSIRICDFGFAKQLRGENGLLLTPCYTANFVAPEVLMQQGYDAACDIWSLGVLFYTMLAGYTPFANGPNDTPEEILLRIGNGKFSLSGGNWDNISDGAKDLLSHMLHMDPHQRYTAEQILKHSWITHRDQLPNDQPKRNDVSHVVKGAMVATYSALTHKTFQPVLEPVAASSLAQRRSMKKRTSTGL
Mitogen-activated protein kinase kinase kinase 11 (Homo sapiens), sequence (Q16584 whole entry, looked up): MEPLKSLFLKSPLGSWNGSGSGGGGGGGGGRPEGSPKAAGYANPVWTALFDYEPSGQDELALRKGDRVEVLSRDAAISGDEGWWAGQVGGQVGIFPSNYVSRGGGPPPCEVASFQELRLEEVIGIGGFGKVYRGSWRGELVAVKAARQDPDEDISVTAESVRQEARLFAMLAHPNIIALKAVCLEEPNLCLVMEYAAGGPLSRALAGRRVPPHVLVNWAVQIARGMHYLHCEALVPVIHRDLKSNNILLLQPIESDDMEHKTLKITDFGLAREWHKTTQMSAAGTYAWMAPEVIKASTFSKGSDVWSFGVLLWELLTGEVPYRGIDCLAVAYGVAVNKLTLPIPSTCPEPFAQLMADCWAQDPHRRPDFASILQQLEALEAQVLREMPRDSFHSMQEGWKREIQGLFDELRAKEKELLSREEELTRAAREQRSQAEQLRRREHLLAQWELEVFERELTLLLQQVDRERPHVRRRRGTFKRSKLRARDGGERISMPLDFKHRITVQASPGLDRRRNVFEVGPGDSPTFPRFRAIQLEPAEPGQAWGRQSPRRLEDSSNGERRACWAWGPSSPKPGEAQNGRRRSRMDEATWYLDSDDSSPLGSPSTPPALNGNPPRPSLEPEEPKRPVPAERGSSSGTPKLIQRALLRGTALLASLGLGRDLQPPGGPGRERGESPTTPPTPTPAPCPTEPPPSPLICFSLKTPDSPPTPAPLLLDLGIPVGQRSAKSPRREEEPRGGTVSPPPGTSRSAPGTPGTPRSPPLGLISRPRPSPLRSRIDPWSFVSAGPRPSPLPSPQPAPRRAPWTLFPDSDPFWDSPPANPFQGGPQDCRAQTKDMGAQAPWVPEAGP
Serine/threonine-protein kinase B-raf (Homo sapiens), sequence (P15056 whole entry): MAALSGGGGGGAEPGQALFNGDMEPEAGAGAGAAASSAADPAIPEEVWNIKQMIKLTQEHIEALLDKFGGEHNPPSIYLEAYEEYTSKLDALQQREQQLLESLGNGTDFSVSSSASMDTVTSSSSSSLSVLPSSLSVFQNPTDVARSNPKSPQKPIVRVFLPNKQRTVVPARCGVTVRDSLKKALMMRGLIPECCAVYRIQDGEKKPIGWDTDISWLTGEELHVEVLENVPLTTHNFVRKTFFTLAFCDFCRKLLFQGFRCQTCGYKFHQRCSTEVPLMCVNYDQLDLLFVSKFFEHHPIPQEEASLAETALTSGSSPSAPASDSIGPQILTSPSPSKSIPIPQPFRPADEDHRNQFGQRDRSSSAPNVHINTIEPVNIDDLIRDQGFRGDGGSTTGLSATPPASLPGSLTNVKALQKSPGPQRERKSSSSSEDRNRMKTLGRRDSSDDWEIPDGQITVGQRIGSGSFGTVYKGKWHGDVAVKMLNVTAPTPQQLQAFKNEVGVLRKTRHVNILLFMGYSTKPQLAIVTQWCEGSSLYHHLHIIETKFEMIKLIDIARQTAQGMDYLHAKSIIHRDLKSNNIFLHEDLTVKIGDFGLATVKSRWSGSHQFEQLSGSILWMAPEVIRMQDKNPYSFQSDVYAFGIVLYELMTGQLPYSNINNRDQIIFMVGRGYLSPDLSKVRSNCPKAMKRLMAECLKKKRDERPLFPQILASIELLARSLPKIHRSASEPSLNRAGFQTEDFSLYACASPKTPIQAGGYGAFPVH

SMILES: Nc1cnc(N2CCc3cc(S(=O)(=O)Nc4c(F)cc(Cl)cc4F)cc(N4CCCC4=O)c32)nc1 [TP-020n]
% of control [1]: 99%

SMILES: CNC(=O)Nc1ccc(-c2nc(N3CC4CCC(C3)O4)c3cnn(C4CCC5(CC4)OCCO5)c3n2)cc1
% of control [2]: 100%

SMILES: N#Cc1cccc(-c2c[nH]c3ncnc(N4CCOCC4)c23)c1
% of control [3]: 9.8%

SMILES: C=CC(=O)Nc1ccc(C(=O)Nc2[nH]nc3c2CN(C(=O)N[C@H](CN(C)C)c2ccccc2)C3(C)C)cc1
% of engagement [4]: 6.2%

SMILES: Cc1cc([C@@H](C)Nc2ccccc2C(=O)O)c2nc(N3CCOCC3)cc(=O)n2c1 [AZD-6482]
% of control [5]: 58%

% of inhibition [6]: 0.492%
% of inhibition ([7]; at 0.01 µM): -10.4%
% of inhibition ([7]; at 0.04 µM): -16%
% of inhibition ([7]; at 0.2 µM): 2.1%
% of inhibition ([7]; at 1 µM): 32.5%
% of inhibition ([7]; at 5 µM): 85%
SMILES: CC[C@@H]1[C@H](F)C(=O)N[C@@H]1COc1nccc2cc(C(N)=O)c(OC)cc12 [ZIMLOVISERTIB]
